Data from patent US9988407B2, “Prodrugs of prostate specific membrane antigen (PSMA) inhibitor” (THE JOHNS HOPKINS UNIVERSITY, priority 2014, dated 2018).
Entries after “also recorded” stand apart in the source; their conditions may differ.

Assays:
[1] = In vivo pharmacokinetics in mice, peroral, bioanalysis method 1 (total prodrug exposure); details: mice, oral dosing
Procedure: Blood was obtained via cardiac puncture and tissue dissected at 0 min, 15 min, 30 min, 1 h, 2 h, and 4 h post dose (n=3 per time point). Single time point studies were conducted at 30 min (N=3) following dosing. Plasma was harvested from blood by centrifugation. Mean concentration-time data was used for pharmacokinetic (PK) analysis. Non-compartmental-analysis module in WinNonlin® (version 5.3) was used to assess pharmacokinetic parameters. Peak plasma concentrations (Cmax) and time to Cmax (Tmax) were the observed values. Area under the curve (AUC) was calculated by log-linear (p.o.) trapezoidal rule to the end of sample collection (AUClast) and extrapolated to infinity (AUC0-∞) by dividing the last quantifiable concentration by the terminal disposition rate constant (ke). Terminal half-life (t1/2) was estimated from first order kinetics: t1/2=0.693/ke.
Briefly, prior to extraction, frozen samples were thawed on ice. For plasma extraction, 50 μL of the calibration standards or samples were transferred into silanized microcentrifuge tubes. Sample preparation involved a single liquid extraction by addition of 300 μL of methanol as extraction solution with internal standard (i.e., 5 μM of 2-PMSA in methanol), followed by vortexing for 30 s and then centrifugation at 12000 g for 10 min. Supernatant was transferred (˜250 μL) and evaporated to dryness at 40° C. under a gentle stream of nitrogen. The residue was reconstituted with 100 μL of derivatizing agent, n-butanol with 3N HCl, and samples were vortexed. The samples were heated at ˜60 OC in a shaking water bath for 30 min. At the end of 30 min, the derivatized samples were allowed to cool at room temperature and dried again for removal of derivatizing reagent, under a gentle stream of nitrogen. The residue was reconstituted in 100 μL of 30% acetonitrile in water v/v. The samples were vortexed and centrifuged again. ˜80 μL supernatant was transferred to a 250 μL polypropylene vial sealed with a Teflon cap and a volume of 10 μL was injected onto the ultra-performance liquid chromatography (UPLC) instrument for quantitative analysis. Chromatographic analysis was performed using an Accela™ ultra high-performance system consisting of an analytical pump, and an autosampler coupled with TSQ Vantage mass spectrometer (Thermo Fisher Scientific Inc., Waltham Mass.). […] The mobile phase used was composed of 0.1% formic acid in acetonitrile and 0.1% formic acid in H2O with gradient elution, starting with 20% (organic) linearly increasing to 65% up to 2.5 min, maintaining at 65% (2.5-3.5 min) and reequilibrating to 30% by 5 min. The total run time for each analyte was 5.0 min.

[2] = In vivo pharmacokinetics in mice, peroral, bioanalysis method 2 (2-PMPA release); details: for stability of carboxylic esters in vivo: mouse
Procedure: Blood was obtained via cardiac puncture and tissue dissected at 0 min, 15 min, 30 min, 1 h, 2 h, and 4 h post dose (n=3 per time point). Single time point studies were conducted at 30 min (N=3) following dosing. Plasma was harvested from blood by centrifugation. Mean concentration-time data was used for pharmacokinetic (PK) analysis. Non-compartmental-analysis module in WinNonlin® (version 5.3) was used to assess pharmacokinetic parameters. Peak plasma concentrations (Cmax) and time to Cmax (Tmax) were the observed values. Area under the curve (AUC) was calculated by log-linear (p.o.) trapezoidal rule to the end of sample collection (AUClast) and extrapolated to infinity (AUC0-∞) by dividing the last quantifiable concentration by the terminal disposition rate constant (ke). […] The tissues were stored in −20° C. for 1 h and then homogenized. The calibration curve for the tissues was developed using naïve mouse brains from untreated animals as a matrix. For sciatic nerve, the nerves were weighed and homogenized in 50 μL methanol and the calibration curve was developed using naïve sciatic nerves from untreated animals as a matrix. The samples were vortexed and centrifuged. […] Supernatant was dried under a gentle stream of nitrogen at 45° C. and the residue reconstituted with 75 μL of acetonitrile and vortexed. 25 μL of derivatizing agent N-tert-Butyldimethysilyl-N-methyltrifluoro-acetamide (MTBSTFA) was added to microcentrifuge tubes, vortexed, and heated at ˜60 OC for 40 min. At the end of 40 min, the derivatized samples ˜75 μL were transferred to a 250 μL polypropylene vials and were analyzed via LC/MS/MS. Chromatographic analysis was performed using an Accela™ ultra high-performance system consisting of an analytical pump, and an autosampler coupled with TSQ Vantage mass spectrometer (Thermo Fisher Scientific Inc., Waltham Mass.). […] The total run time for each analyte was 5.0 min. Chromatographic analysis will be performed on Accela UPLC.

[3] = In vitro metabolic stability screen in plasma and liver subcellular fractions (results in words); assay type: in vitro ADME; details: 60 min incubation
Procedure: (§1) For metabolic stability, plasma (mouse, dog, monkey and human) and liver microsomes (mouse, dog, monkey and human) were used. For stability, prodrugs (10 μM) were spiked in each matrix and incubated in an orbital shaker at 37° C. At predetermined times (0, 30 and 60 min), 100 μL aliquots of the mixture in triplicate were removed and the reaction quenched by addition of three times the volume of ice cold acetonitrile spiked with the internal standard (losartan 5 μM). The samples were vortexed for 30 s and centrifuged 12000 g for 10 min. 50 μL supernatant diluted with 50 μL water was transferred to a 250 μL polypropylene vial sealed with a Teflon cap. Prodrug disappearance was monitored over time using a liquid chromatography and tandem mass spectrometry (LC/MS/MS) method as described below.
(§2) For LC/MS/MS, prodrugs were separated with Thermo Scientific Accela UPLC system coupled to Accela open autosampler on an Agilent C18 (100×2.1 mm id) UPLC column. The autosampler was temperature controlled and operating at 10° C. The mobile phase used for the chromatographic separation was composed of acetonitrile/water containing 0.1% formic acid and was run at a flow rate of 0.5 mL/minute for 4.5 minutes using gradient elution. The column effluent was monitored using TSQ Vantage triple-quadrupole mass spectrometric detector, equipped with an electrospray probe set in the positive ionization mode. Samples were introduced into the ionization source through a heated nebulized probe (350° C.).
For quantification of compound remaining, disappearance of prodrugs was measured from ratio of peak areas of analyte to IS. Percentage remaining was calculated in the following manner:
In general, the prodrugs were screened by an in vitro metabolic stability screen, and if positive, followed by an in vivo single time point pharmacokinetic study, and in select cases, an in vivo full time course pharmacokinetic study (FIG. 3). In this Example, the four acidic functional groups in 2-PMPA were systematically capped. The carboxylic acids were first masked with simple alkyl esters (Compounds 1, 2, and 3). In vitro chemical and metabolic stability of the prodrugs then were conducted, following 60 min incubation in plasma stability screens for prodrugs.

[4] = Chemical stability in HBSS buffer (pH 7.4) / simulated gastric fluid; assay type: physicochemical; details: for chemical stability: chemical hydrolysis / HBSS buffer; for Percentage remaining: HBSS, 10 μM, 37° C.
Procedure: The chemical stability of prodrugs was evaluated using simulated gastric fluid (pH 1.2) and Hanks' Balanced Salt Solution (HBSS) buffer (pH 7.4). Briefly, prodrugs were spiked (10 μM) in respective solutions and incubated at 37° C. for 1 h. At predetermined time points (0, 30 and 60 min), aliquots of 100 μL were removed and diluted with 100 μL of water. Prodrug disappearance was monitored using the developed liquid chromatography and tandem mass spectrometry (LC/MS/MS) method described below.
as §2
(§3) For quantification of compound remaining, disappearance of prodrugs was measured from ratio of peak areas of analyte to IS. Percentage remaining was calculated in the following manner: […]

[5] = Metabolic stability in mouse plasma; assay type: in vitro ADME; details: 10 μM, 37° C.
Procedure: as §1, §2, §3

[6] = Metabolic stability in mouse liver microsomes; assay type: in vitro ADME; details: 10 μM, 37° C.
Procedure: as §1, §2, §3

[7] = Metabolic stability in human plasma; assay type: in vitro ADME; details: 10 μM, 37° C.
Procedure: as §1, §2, §3

[8] = Metabolic stability in human liver microsomes; assay type: in vitro ADME; details: 10 μM, 37° C.
Procedure: as §1, §2, §3

[9] = Metabolic stability in mouse liver S9; assay type: in vitro ADME; details: Mouse S9, 10 μM, 37° C.

SMILES | permeability in vivo [1] | in vitro metabolic stability [3] | chemical stability [4] | Percentage remaining ([5]; 0 min) [%] | Percentage remaining ([5]; 30 min) [%] | Percentage remaining ([5]; 60 min) [%] | Percentage remaining ([6]; 0 min) [%] | Percentage remaining ([6]; 30 min) [%] | Percentage remaining ([6]; 60 min) [%] | Percentage remaining ([7]; 0 min) [%] | Percentage remaining ([7]; 30 min) [%] | Percentage remaining ([7]; 60 min) [%] | Percentage remaining ([8]; 0 min) [%] | Percentage remaining ([8]; 30 min) [%] | Percentage remaining ([8]; 60 min) [%] | Percentage remaining ([9]; 0 min) [%] | Percentage remaining ([9]; 30 min) [%] | Percentage remaining ([9]; 60 min) [%] | other results
CCCOC(=O)CCC(CP(=O)(O)O)C(=O)OCCC (stereo not drawn) [Compound 3, [5-Oxo-5-propoxy-2-(propoxycarbonyl)pentyl]phosphonic acid] | then the propyl ester | too stable |  |  |  |  |  |  |  |  |  |  |  |  |  |  |  |  | stability of carboxylic esters in vivo [2]: too stable in vivo
CC(C)OC(=O)OC(C)OC(=O)C(CCC(=O)O)CP(=O)(OC(C)OC(=O)OC(C)C)OC(C)OC(=O)OC(C)C (stereo not drawn) [Compound 24] |  | instability in plasma and liver subcellular fractions | sufficient chemical stability | 100 | 0 | 0 | 100 | 1 | 0 | 100 | 106 | 75 | 100 | 27 | 8 |  |  |  | oral bioavailability ([2]; rodents and dogs): excellent oral bioavailability
CCOC(=O)CCC(CP(=O)(OCOC(=O)C(C)(C)C)OCOC(=O)C(C)(C)C)C(=O)OCC (stereo not drawn) [Compound 18, Diethyl 2-({bis[(pivaloyloxy)methoxy]phosphoryl}methyl)pentanedioate] |  | too stable |  | 0 | 0 | 0 | 100 | 2 | 0 | 100 | 50 | 18 | 100 | 1 | 0 | 100 | 1 | 0 | 
CC(C)(C)C(=O)OCOC(=O)C(CCC(=O)O)CP(=O)(OCOC(=O)C(C)(C)C)OCOC(=O)C(C)(C)C (stereo not drawn) [Compound 23] | highest permeability | instability in plasma and liver subcellular fractions | sufficient chemical stability |  |  |  |  |  |  |  |  |  |  |  |  |  |  |  | 
COC(=O)CCC(CP(=O)(O)O)C(=O)OC (stereo not drawn) [Compound 1, [5-(Methyloxy)-2-(methoxycarbonyl)-5-oxopentyl]phosphonic acid] |  | too stable; also recorded: stable in plasma |  | 100 | 102 | 101 | 100 | 102 | 103 | 100 | 100 | 86 | 100 | 90 | 96 | 100 | 101 | 86 | Percentage remaining ([4]; 0 min): 100%; Percentage remaining ([4]; 30 min): 92%; Percentage remaining ([4]; 60 min): 94%; stability of carboxylic esters in vivo [2]: too stable in vivo; in vitro metabolic stability ([3]; listed as JHU 2106): too stable
COC(=O)C(CCC(=O)O)CP(=O)(OCOC(=O)OC(C)C)OCOC(=O)OC(C)C (stereo not drawn) [Compound 7, 4-((Bis{[(isopropoxycarbonyl)oxy]methoxy}phosphoryl)methyl)-5-methoxy-5-oxopentanoic acid] | good compound penetrability; also recorded: good permeability | unstable in mouse plasma and mouse liver microsomes | stable to chemical hydrolysis |  |  |  |  |  |  |  |  |  |  |  |  |  |  |  | 
COC(=O)CCC(CP(=O)(OCOC(=O)OC(C)C)OCOC(=O)OC(C)C)C(=O)OC (stereo not drawn) [Compound 6, Dimethyl 2-((bis{[(isopropoxycarbonyl)oxy]methoxy}phosphoryl)methyl)-pentanedioate] | good compound penetrability; also recorded: good permeability | unstable in mouse plasma and mouse liver microsomes | stable to chemical hydrolysis | 100 | 2 | 0.4 | 100 | 2 | 0.1 |  |  |  |  |  |  | 100 | 1 | 0.1 | Percentage remaining ([4]; 0 min): 100%; Percentage remaining ([4]; 30 min): 101%; Percentage remaining ([4]; 60 min): 93%; chemical stability ([4]; listed as JHU 2110): stable in HBSS buffer; permeability in vivo ([1]; listed as JHU 2110): most permeable
